# Test system: L5/L6 spinal nerve ligation (SNL) rats
# Experiment: Tactile allodynia (von Frey) in spinal nerve ligation model
# Type: in vivo, rat
# Method: (A) L5/L6 spinal nerve ligation (SNL) was performed as described by Kim and Chung (Pain, 50,355-363(1992)). Animals (mice or rats) were anesthetized with halothane. An incision was made lateral to the lumbar spine. The right L5 and L6 spinal nerves were isolated and tightly ligated distal to the dorsal root ganglion. The incision was closed, and animals were allowed to recover for 10 days. Sham-operated animals were prepared in an identical fashion except that the spinal nerves were not ligated.
# The protocol was repeated until three changes in behavior were determined. The maximal cut-off size values used were 15 g for rats and 3.5 g for mice. The 50% paw withdrawal threshold was determined as 10Xf+kδ/10,000, where Xf=the value of the last von Frey filament used, k=Dixon value for the positive/negative pattern, and δ=the logarithmic difference between stimuli.
# Tactile allodynia response was measured 15, 30, 45, 60, 90 and 120 minutes after i.p. administration of ganaxolone (at 1 mg/kg, 3 mg/kg, 6 mg/kg or 10 mg/kg). Table 2 provides the resulting measurement of tactile allodynia response in groups of five rats per dosage level.
compound,measurement,setting,value
"CC(=O)[C@H]1CC[C@H]2[C@@H]3CC[C@H]4C[C@](C)(O)CC[C@]4(C)[C@H]3CC[C@]12C [ganaxolone, 3α-hydroxy-3β-methyl-5α-pregnan-20-one]",% Activity ± s.e.m. (tactile allodynia),"1 mg/kg i.p., 15 min, SNL rats",2.83 ± 2.83%
same,% Activity ± s.e.m. (tactile allodynia),"1 mg/kg i.p., 30 min, SNL rats",6.35 ± 3.38%
same,% Activity ± s.e.m. (tactile allodynia),"1 mg/kg i.p., 45 min, SNL rats",3.20 ± 2.21%
same,% Activity ± s.e.m. (tactile allodynia),"1 mg/kg i.p., 60 min, SNL rats",2.41 ± 1.53%
same,% Activity ± s.e.m. (tactile allodynia),"1 mg/kg i.p., 90 min, SNL rats",2.41 ± 1.53%
same,% Activity ± s.e.m. (tactile allodynia),"1 mg/kg i.p., 120 min, SNL rats",3.06 ± 3.06%
same,% Activity ± s.e.m. (tactile allodynia),"3 mg/kg i.p., 15 min, SNL rats",9.69 ± 4.56%
same,% Activity ± s.e.m. (tactile allodynia),"3 mg/kg i.p., 30 min, SNL rats",13.76 ± 6.54%
same,% Activity ± s.e.m. (tactile allodynia),"3 mg/kg i.p., 45 min, SNL rats",14.02 ± 5.14%
same,% Activity ± s.e.m. (tactile allodynia),"3 mg/kg i.p., 60 min, SNL rats",11.56 ± 3.01%
same,% Activity ± s.e.m. (tactile allodynia),"3 mg/kg i.p., 90 min, SNL rats",9.19 ± 2.67%
same,% Activity ± s.e.m. (tactile allodynia),"3 mg/kg i.p., 120 min, SNL rats",9.64 ± 1.63%
same,% Activity ± s.e.m. (tactile allodynia),"6 mg/kg i.p., 15 min, SNL rats",26.79 ± 9.34%
same,% Activity ± s.e.m. (tactile allodynia),"6 mg/kg i.p., 30 min, SNL rats",30.85 ± 6.77%
same,% Activity ± s.e.m. (tactile allodynia),"6 mg/kg i.p., 45 min, SNL rats",47.30 ± 14.99%
same,% Activity ± s.e.m. (tactile allodynia),"6 mg/kg i.p., 60 min, SNL rats",34.17 ± 15.78%
same,% Activity ± s.e.m. (tactile allodynia),"6 mg/kg i.p., 90 min, SNL rats",26.91 ± 15.45%
same,% Activity ± s.e.m. (tactile allodynia),"6 mg/kg i.p., 120 min, SNL rats",9.32 ± 2.85%
same,% Activity ± s.e.m. (tactile allodynia),"10 mg/kg i.p., 15 min, SNL rats",47.91 ± 21.86%
same,% Activity ± s.e.m. (tactile allodynia),"10 mg/kg i.p., 30 min, SNL rats",79.27 ± 18.71%
same,% Activity ± s.e.m. (tactile allodynia),"10 mg/kg i.p., 45 min, SNL rats",70.60 ± 18.42%
same,% Activity ± s.e.m. (tactile allodynia),"10 mg/kg i.p., 60 min, SNL rats",64.61 ± 18.63%
same,% Activity ± s.e.m. (tactile allodynia),"10 mg/kg i.p., 90 min, SNL rats",24.81 ± 9.53%
same,% Activity ± s.e.m. (tactile allodynia),"10 mg/kg i.p., 120 min, SNL rats",4.38 ± 1.81%
same,Sedation,"10 mg/kg i.p., SNL rats, tactile allodynia test",sedated four of the five rats for about one hour
same,Effect on % Activity,"summary, SNL animals",increases the % Activity
